Assays:
[1] = tested on: adult males and females who had experienced nasal and/or eye discomfort due to pollen; experiment: Severity classification of allergic rhinitis symptoms, placebo-controlled intake test during the pollen season; format: in vivo, human
Description: The severity classification of allergic rhinitis symptoms refers to a method of classifying the severity based on Practical Guideline for the Management of Allergic Rhinitis in Japan 2020 (Committee of the Practical Guideline for the Management of Allergic Rhinitis). Specifically, each evening, the subject himself/herself selects the one that best describes the severity of the day on the subjective symptoms on each item listed in the table below.
The subjects were adult males and females who had experienced nasal and/or eye discomfort due to pollen for the past 2 years.
The remaining 36 subjects were randomized and divided into a DGLA administration group (intervention group; hereinafter referred to as DGLA group) with 18 subjects and a placebo administration group (control group; hereinafter referred to as placebo group) with 18 subjects. 3 subjects in the placebo group became untraceable during the testing. Therefore, the analysis was performed on 18 subjects in the DGLA group and 15 subjects in the placebo group.
The DGLA group: DGLA-containing oil (DGLA of 31.4% by weight) was taken at 1,000 mg/day for 15 weeks. The DGLA of 314 mg/day is to be taken in terms of free fatty acid. The DGLA-containing oil was obtained by the method described in Japanese Patent No. 3354581. Specifically, to 200 g of dry cells of a filamentous fungus (Mortierella alpina), 500 mL of hexane was added, the mixture was stirred, and the filtration was repeated three times to extract oil, and then the hexane layer was evaporated to obtain DGLA-containing oil. The subjects took 4 capsules filled with this oil per day.
The intake duration of the diet for testing was 15 weeks from January 8th to Apr. 23, 2022. […]
(§1) The mean±SD of the change in score from the start of the testing was calculated for each group at each time point, and statistical analysis was conducted. […]

[2] = tested on: adult males and females who had experienced nasal and/or eye discomfort due to pollen; experiment: Japanese Allergic Rhinitis Standard Quality of Life Questionnaire (JRQLQ), placebo-controlled intake test during the pollen season; format: in vivo, human
Description: The JRQLQ is a questionnaire created by Okuda et al. to assess the impact of allergic rhinitis on quality of life (QOL) (Minoru Okuda et al.: Japanese Rhino-conjunctivitis Quality-of-Life Questionnaire (2002 edition), Committee of the Japanese Rhino-conjunctivitis Quality-of-Life Questionnaire, Allergy 2003; 52:21-56). […] In the JRQLQ, the subject himself/herself selects the one that best describes the severity of the worst nasal and eye symptoms the subject has experienced in the past 1-2 weeks on the items listed in the table below.
Also, as shown in Examples to be described later, the composition of the present invention can reduce the scores of nasal and eye symptoms in the JRQLQ, in particular, or suppress the increase of the score, compared to the placebo group. In the present invention, the phrase the “score of nasal and eye symptoms in the JRQLQ” means the sum of the scores of runny nose, sneezing, blocked nose, itchy nose, itchy eyes, and watery eyes in the JRQLQ. In a preferred embodiment of the present invention, the composition of the present invention can be used for reducing the scores of nasal and eye symptoms in the JRQLQ, or suppressing the increase of the score, compared to the placebo group. […]
as §1

[3] = tested on: dermatitis model animals; conditions: intake of DGLA; PTL 2; cited from earlier work
[4] = tested on: atopic dermatitis model mice; conditions: PTL 4, cited from earlier work
[5] = tested on: splenocytes from the model mice; conditions: PTL 4; cited from earlier work

Structure (SMILES): CCCCCC=CCC=CCC=CCCCCCCC(=O)O [DGLA, 8,11,14-eicosatrienoic acid]
- sneezing attack score in the severity classification of allergic rhinitis symptoms, change from the start of testing (week 0) ([1]; DGLA group (n=18) vs placebo group (n=15), DGLA-containing oil 1,000 mg/day (DGLA 314 mg/day) oral, 15 weeks, p<0.01, FIG. 1): significantly reduced
- nasal congestion score in the severity classification of allergic rhinitis symptoms, change from the start of testing (week 0) ([1]; DGLA group (n=18) vs placebo group (n=15), DGLA-containing oil 1,000 mg/day (DGLA 314 mg/day) oral, 15 weeks, p<0.05, FIG. 2): significantly reduced
- stratification analysis of the DGLA group, severity classification items (sneezing attack, nasal discharge, nasal congestion, itchy eyes, tearing) ([1]; Group H (score 1 or higher at week 0) vs Group L (score 0), no significant difference, P=0.249-0.712, FIGS. 4 to 8): all the mean values for the items of Group H were lower than those of Group L
- JRQLQ nasal and eye symptom score (sum of runny nose, sneezing, blocked nose, itchy nose, itchy eyes, watery eyes), change from week 0 ([2]; DGLA group (n=18) vs placebo group (n=15), DGLA-containing oil 1,000 mg/day (DGLA 314 mg/day) oral, 15 weeks, p<0.1, FIG. 3): tended to be reduced
- stratification analysis of the DGLA group, JRQLQ items (runny nose, sneezing, blocked nose, itchy nose, itchy eyes, watery eyes) ([2]; Group H (score 1 or higher at week 0) vs Group L (score 0), no significant difference, P=0.084-0.59, FIGS. 9 to 14): all the mean values for the items of Group H were lower than those of Group L
- dermatitis [3]: suppresses dermatitis

Structure (SMILES): CCCCC/C=C\C/C=C\C/C=C\CCCCC(=O)O [GLA, γ-linolenic acid]
- IgE production ([4]; orally administered for two months, atopic dermatitis-affected mice with hyper IgE-emia): suppression of IgE production was not observed
- IgE production in vitro [5]: suppressed IgE production

Structure (SMILES): CCCCC/C=C\C/C=C\C/C=C\CCCCC(=O)OCC [γ-linolenic acid (GLA) ethyl ester]
- hyper IgE production ([4]; oral administration, atopic dermatitis model mice): suppressed hyper IgE production

From US20260174671A1, “COMPOSITION FOR ALLEVIATING OR PREVENTING SYMPTOMS OF ALLERGIC RHINITIS OR ALLERGIC CONJUNCTIVITIS” (Nissui Corporation, priority 2022, published 2026)
